Laboratory results taken from ChEMBL document CHEMBL5614413, “Design, synthesis and biological evaluation of amphiphilic benzopyran derivatives as potent antibacterial agents against multidrug-resistant bacteria” (Eur J Med Chem, 2024).
Converted amounts (≈) assume the structure as drawn. The source made the active and inactive calls. The rule behind the calls is not given here.

Legend:
Staphylococcus aureus [1] = assay: Drug resistance, ratio of MIC for methicillin-resistant Staphylococcus aureus ATCC 43300 after 19 days exposure to MIC for methicillin-resistant Staphylococcus aureus ATCC 43300 during first exposure; type: functional; conditions: time 19 day
Staphylococcus aureus [2] = assay: Bacteriostatic activity against methicillin-resistant Staphylococcus aureus ATCC 43300 assessed as inhibition of bacterial growth at 2 times of MIC measured after 24 hrs by time-kill kinetic analysis; type: functional, organism-based
Cell membrane [3] = assay: Disruption of cell membrane in methicilin-resistant Staphylococcus aureus ATCC 43300 assessed as appearance of wrinkled cell membrane by scanning electron microscopic analysis; type: cell membranes
Staphylococcus aureus [4] = assay: Inhibition of biofilm formation in methicillin-resistant Staphylococcus aureus ATCC 43300 at 16 microg/ml relative to control; type: functional
Staphylococcus aureus [5] = assay: Selectivity ratio of MBC for bactericidal activity against methicillin-resistant Staphylococcus aureus ATCC 43300 in presence of 50% human serum to MBC for bactericidal activity against methicillin-resistant Staphylococcus aureus ATCC 43300; type: functional
Staphylococcus aureus [6] = assay: Disruption of preformed biofilm in methicillin-resistant Staphylococcus aureus ATCC 43300 assessed as eradication of biofilm by crystal violet staining method; type: functional, organism-based; conditions: dose 2-64 µg/ml
Staphylococcus aureus [7] = assay: Bactericidal activity against methicillin-resistant Staphylococcus aureus ATCC 43300 by Mueller Hinton broth based assay; type: functional; conditions: time <= 6 hrs
Staphylococcus aureus [8] = assay: Disruption of preformed biofilm in methicillin-resistant Staphylococcus aureus ATCC 43300 assessed as eradication of biofilm at 64 microg/ml by crystal violet staining based analysis relative to control; type: functional; conditions: dose 64 µg/ml
[9] = test system: Staphylococcus epidermidis; assay: Antibacterial activity erythromycin-susceptible Staphylococcus epidermidis ATCC 12228; type: functional
Escherichia coli = assay: Antibacterial activity against penicillin-susceptible Escherichia coli ATCC 25922; type: functional
Staphylococcus aureus [10] = assay: Bactericidal activity against methicillin-resistant Staphylococcus aureus ATCC 43300 assessed as log reduction in bacterial growth at 16 times of MIC measured after 4 hrs by time killing analysis; type: functional
Cell membrane [11] = assay: Induction of cytoplasmic membrane depolarization in methicillin-resistant Staphylococcus aureus ATCC 43300 assessed as increase in fluorescence intensity at 2 microg/ml by DiSC3(5) dye-based fluorescence assay; type: cell membranes; conditions: dose 2.0 µg/ml
Pseudomonas aeruginosa = assay: Antibacterial activity against penicillin-susceptible Pseudomonas aeruginosa ATCC 27853; type: functional
Klebsiella pneumoniae = assay: Antibacterial activity against Klebsiella pneumoniae ATCC 10031; type: functional
Cell membrane [12] = assay: Induction of cytoplasmic membrane depolarization in methicillin-resistant Staphylococcus aureus ATCC 43300 assessed as increase in fluorescence intensity by DiSC3(5) dye-based fluorescence assay; type: cell membranes
Staphylococcus aureus [13] = assay: Bactericidal activity against methicillin-resistant Staphylococcus aureus ATCC 43300 in presence of 50% human plasma by Mueller Hinton broth based assay; type: functional
Cell membrane [14] = assay: Disruption of cell membrane integrity in methicillin-resistant Staphylococcus aureus ATCC 43300 assessed as appearance of blue fluorescence by DAPI/PI staining based microscopic analysis; type: cell membranes
Staphylococcus aureus [15] = assay: Antibacterial activity against penicillin-resistant Staphylococcus aureus ATCC 31007; type: functional
Staphylococcus aureus [16] = assay: Bactericidal activity against methicillin-resistant Staphylococcus aureus ATCC 43300 in presence of 50% human blood by Mueller Hinton broth based assay; type: functional; conditions: ATCC 43300, Blood, time <= 6 hrs
Staphylococcus aureus [17] = assay: Inhibition of biofilm formation in methicillin-resistant Staphylococcus aureus ATCC 43300; type: functional, organism-based; conditions: dose 2-32 µg/ml
Staphylococcus aureus [18] = assay: Antibacterial activity against erythromycin-susceptible Staphylococcus aureus ATCC 25923; type: functional
Cell membrane [19] = assay: Induction of cell membrane disruption in methicillin-resistant Staphylococcus aureus ATCC 43300 assessed as increase in protein leakage; type: cell membranes
Cell membrane [20] = assay: Induction of cytoplasmic membrane permeabilization in methicillin-resistant Staphylococcus aureus ATCC 43300 assessed as increase fluorescence intensity at 16 microg/ml by PI staining based fluorescence analysis; type: cell membranes; conditions: dose 16.0 µg/ml
Cell membrane [21] = assay: Disruption of cell membrane in methicilin-resistant Staphylococcus aureus ATCC 43300 assessed as appearance of collapsed cell membrane by scanning electron microscopic analysis; type: cell membranes
Acinetobacter baumannii = assay: Antibacterial activity against Acinetobacter baumannii ATCC 19606; type: functional
Staphylococcus aureus [22] = assay: Antibacterial activity against methicillin-resistant Staphylococcus aureus ATCC 43300; type: functional
Staphylococcus aureus [23] = assay: Bactericidal activity against methicillin-resistant Staphylococcus aureus ATCC 43300 assessed as bacterial eradication at 16 times of MIC measured at 8 hrs by time kill kinetics analysis relative to control; type: functional
Staphylococcus aureus [24] = assay: Bactericidal activity against methicillin-resistant Staphylococcus aureus ATCC 43300 assessed as reduction in bacterial growth; type: functional, organism-based
Staphylococcus aureus [25] = assay: Drug resistance, ratio of MIC for methicillin-resistant Staphylococcus aureus ATCC 43300 after 20 passages to MIC for methicillin-resistant Staphylococcus aureus ATCC 43300 during first exposure; type: functional
Enterococcus faecalis = assay: Antibacterial activity against vancomycin-susceptible Enterococcus faecalis ATCC 29212; type: functional
[26] = Hemolytic activity in sheep RBC; type: toxicity, cell-based, Ovis aries, Erythrocyte; conditions: sheep red blood cells (erythrocytes)
Staphylococcus aureus [27] = assay: Induction of ROS production in methicillin-resistant Staphylococcus aureus ATCC 43300 assessed as fold increase in ROS level at 32 microg/ml by DCFH-DA staining based analysis; conditions: dose 32 µg/ml
Staphylococcus aureus [28] = assay: Selectivity ratio of MBC for bactericidal activity against methicillin-resistant Staphylococcus aureus ATCC 43300 preincubated with 50% human plasma upto 6 hrs to MBC for bactericidal activity against methicillin-resistant Staphylococcus aureus ATCC 43300; type: functional
Staphylococcus aureus [29] = assay: Bacteriostatic activity against methicillin-resistant Staphylococcus aureus ATCC 43300 assessed as inhibition of bacterial growth at 1 times of MIC measured after 24 hrs by time-kill kinetic analysis; type: functional, organism-based
Staphylococcus aureus [30] = assay: Selectivity ratio of MBC for bactericidal activity against methicillin-resistant Staphylococcus aureus ATCC 43300 in presence of 50% human blood to MBC for bactericidal activity against methicillin-resistant Staphylococcus aureus ATCC 43300; type: functional
Staphylococcus aureus [31] = assay: Antibacterial activity against methicillin-resistant Staphylococcus aureus ATCC 43300 at 1/2 times of MIC measured after 20 passage; type: functional, organism-based
Cell membrane [32] = assay: Disruption of cell membrane integrity in methicillin-resistant Staphylococcus aureus ATCC 43300 assessed as appearance of red fluorescence by DAPI/PI staning based microscopic analysis; type: cell membranes
Cell membrane [33] = assay: Induction of cell membrane disruption in methicillin-resistant Staphylococcus aureus ATCC 43300 assessed as increase in DNA leakage; type: cell membranes
Staphylococcus aureus [34] = assay: Inhibition of biofilm formation in methicillin-resistant Staphylococcus aureus ATCC 43300 at 8 microg/ml relative to control; type: functional
Bacillus subtilis = assay: Antibacterial activity against penicillin-susceptible Bacillus subtilis ATCC 9372; type: functional
Staphylococcus aureus [35] = assay: Inhibition of biofilm formation in methicillin-resistant Staphylococcus aureus ATCC 43300 at 2 microg/ml relative to control; type: functional
[36] = Selectivity index, ratio of HC50 for hemolytic activity in sheep RBC to MIC for antibacterial activity against methicillin-resistant Staphylococcus aureus ATCC 43300; type: toxicity; conditions: sheep red blood cells (erythrocytes), read-out: Selectivity Index
Staphylococcus aureus [37] = assay: Disruption of preformed biofilm in methicillin-resistant Staphylococcus aureus ATCC 43300 assessed as eradication of biofilm at 8 microg/ml by crystal violet staining based analysis relative to control; type: functional; conditions: dose 8 µg/ml
Cell membrane [38] = assay: Disruption of cell membrane in methicillin-resistant Staphylococcus aureus ATCC 43300 assessed as appearance of broken surface by scanning electron microscopic analysis; type: cell membranes
Staphylococcus aureus [39] = assay: Bactericidal activity against methicillin-resistant Staphylococcus aureus ATCC 43300 in presence of 50% human serum by Mueller Hinton broth based assay; type: functional

In the case of `CCn1cc(C(=O)O)c(=O)c2cc(F)c(N3CCNCC3)cc21` [NORFLOXACIN], the Ratio (Staphylococcus aureus [1]) is reported as 512.
In the case of `CCN(CC)CCCNCCCOc1ccc(/C=C/C(=O)c2ccc3c(c2OC)C=CC(C)(CCC=C(C)C)O3)cc1` (stereo not given), the Activity (Staphylococcus aureus [2]) is reported as “Active”, the Activity (Cell membrane [3]) is reported as “Active” and the inhibition at 16 µg/mL (Staphylococcus aureus [4]) is reported as over 92%. For the same compound, the selectivity ratio (Staphylococcus aureus [5]) was 2, the Activity (Staphylococcus aureus [6]) was “Dose-Dependent Effect” and the MBC (Staphylococcus aureus [7]) was 32 µg/mL (≈ 55.7 µM). For the same compound, the Activity (Staphylococcus aureus [8]) was over 40%, the MIC [9] was 1 µg/mL (≈ 1.74 µM) and the MIC (Escherichia coli) was 2 µg/mL (≈ 3.48 µM). The “log(activity)” value (Staphylococcus aureus [10]) was 6, the Activity (Cell membrane [11]) was “inactive” and the MIC (Pseudomonas aeruginosa) was 64 µg/mL (≈ 111 µM). The MIC (Klebsiella pneumoniae) was 4 µg/mL (≈ 6.96 µM), the Activity (Cell membrane [12]) was “Dose-Dependent Effect” and the MBC (Staphylococcus aureus [13]) was 32 µg/mL. For the same compound, the Activity (Cell membrane [14]) was “Active”, the MIC (Staphylococcus aureus [15]) was 1 µg/mL (≈ 1.74 µM) and the MBC (Staphylococcus aureus [16]) was 64 µg/mL. The inhibition (Staphylococcus aureus [17]) was “Dose-Dependent Effect”, the MIC (Staphylococcus aureus [18]) was 2 µg/mL (≈ 3.48 µM) and the Activity (Cell membrane [19]) was “Active”. For the same compound, the Activity (Cell membrane [20]) was “Active”, the Activity (Cell membrane [21]) was “Active” and the MIC (Acinetobacter baumannii) was 8 µg/mL (≈ 13.9 µM). The MIC (Staphylococcus aureus [22]) was 2 µg/mL (≈ 3.48 µM), the Activity (Staphylococcus aureus [23]) was 100% and the Activity (Staphylococcus aureus [24]) was “Dose-Dependent Effect”. For the same compound, the Ratio (Staphylococcus aureus [25]) was 2, the MIC (Enterococcus faecalis) was 2 µg/mL (≈ 3.48 µM) and the HC50 [26] was 270 µg/mL. The “fold change (FC)” value (Staphylococcus aureus [27]) was 14, the selectivity ratio (Staphylococcus aureus [28]) was under 2 and the Activity (Staphylococcus aureus [29]) was “Active”. For the same compound, the selectivity ratio (Staphylococcus aureus [30]) was 2, the Activity (Staphylococcus aureus [31]) was “Active” and the Activity (Cell membrane [32]) was “Active”. For the same compound, the Activity (Cell membrane [33]) was “Active”, the inhibition at 8 µg/mL (Staphylococcus aureus [34]) was 91.6% and the MIC (Bacillus subtilis) was 1 µg/mL (≈ 1.74 µM). For the same compound, the inhibition at 2 µg/mL (Staphylococcus aureus [35]) was 21.2%, the selectivity ratio [36] was 135 and the Activity (Staphylococcus aureus [37]) was 19.12%. The Activity (Cell membrane [38]) was “Active” and the MBC (Staphylococcus aureus [39]) was 32 µg/mL.
